According to patent US11952364B2, “TRK inhibitors useful as anticancer drugs” (TYLIGAND BIOSCIENCE (SHANGHAI) LIMITED, priority 2018, dated 2024):
Read-outs that look alike come from different tables or passages of the source.

How the values were obtained:
[1] = Metabolic stability in liver microsomes; format: in vitro ADME; conditions: pH 7.4; for half-life at 1 µM: read-out: T½
Source text: (§1) According to standard methods conventional in the art for in vitro metabolic stability studies, for example those protocols described in Kems, Edward H. and Di Li (2008). Drug-like Properties: Concepts. Structure Design and Methods: from ADME to Toxicity Optimization. San Diego: Academic Press; Di, Li et al., Optimization of a Higher Throughput Microsomal Stability Screening Assay for Profiling Drug Discovery Candidates, J. Biomol. Screen. 2003, 8(4), 453., the metabolic stability test in liver microsomes of the present compound was performed analogously as follows.
(§2) The in vitro metabolic stability of the compound in 5 species (mouse, rat, dog, monkey, and human) was evaluated by liver microsomal stability test. 0.1M potassium phosphate buffer solution (pH 7.4, containing 1.0 mM EDTA) was prepared. The test compound and the control compound were prepared into a 10 mM DMSO solution, and then 10 μL of the 10 mM DMSO compound solution was added to 190 μL of acetonitrile to prepare a 500 μM compound solution. Liver microsomes (Sekisui XenoTech, LLC., human liver microsomes, cat. #H0610; Beagle dog liver microsomes, cat. #D1000; cynomolgus monkey liver microsomes, cat. #P2073; rat liver microsomes, cat. #R1073; mouse Liver microsomes, cat. #M1000) were taken and slowly melted on ice, then 18.75 μL of the liver microsome solution (20 mg/mL) and 1.5 μL of 500 μM compound solution were added to 479.75 μL of 0.1M potassium phosphate buffer solution to prepare a 0.75 mg/mL liver microsome working solution with a concentration of 1.5 μM compound. 6 mM NADPH (SIGMA, cat. #V900362) aqueous solution was prepared. 0.2 mL 2 mg/mL internal standard stock solution (imipramine solution in acetonitrile) was added to 1000 mL acetonitrile (SIGMA, cat. #271004) to prepare the reaction stop solution and stored at 4° C.
Six deep-well plates were labeled as T0, T5, T15, T30, T45 and NCF60 (negative control, without NADPH). 30 μL of […] control compound or test compound solution in 0.75 mg/mL liver microsome working solution was added to each well of the corresponding plates. After being sealed with film, all the microplates were placed in a 37° C. water bath to preheat for 5 minutes, and 6 mM NADPH solution was placed in a 37° C. water bath to preheat for 5 minutes. Then 15 μL of NADPH solution was added to each cell successively in reverse time order, that is, first adding the T45 plate, 15 minutes later the T30 plate, 15 minutes later again the T15 plate, and 10 minutes later gain the T5 plate. NCF60 plate was not added with NADPH but 15 μL of deionized water. At this time, to the TO plate were added 135 μL of ice-cooled reaction stop solution and 15 μL of NADPH solution. By the end of the reaction, 135 μL of ice-precooled reaction stop solution was added successively to each well of the T5, T15, T30, and T45 plates. All samples were centrifuged at 4° C. at 600 rpm for 10 minutes, and then at 5594 g for 15 minutes (Thermo Multifugex 3R). Six 96-well plates were respectively labeled and added 50 μL of ultrapure water (Millipore, ZMQS50F01) to each well, then 50 μL of the centrifuged supernatant was added to the corresponding well of the corresponding plate, for LC-MS/MS-014 (API4000), UPLC-MS/MS-11 (API4000), LC-MS/MS-034 (API-6500+) analysis. The concentration (C0) of the test compound at TO time point was taken as 100%, and the concentrations at other incubation time points were converted into residue percentages.
(§3) The natural logarithm of the residue percentage at each time point was subjected to linearly regression as a factor of incubation time to obtain Slope k, and then the liver microsome clearance rate (CLint^mic) and in vitro half-life (T½) were calculated according to the following formula: […]

[2] = Metabolic stability in liver microsomes; format: in vitro ADME, cynomolgus monkey; conditions: pH 7.4, monkey liver microsomes; for half-life at 1 µM: read-out: T½
Source text: as §1, §2
Six deep-well plates were labeled as T0, T5, T15, T30, T45 and NCF60 (negative control, without NADPH). 30 μL of […] control compound or test compound solution in 0.75 mg/mL liver microsome working solution was added to each well of the corresponding plates. After being sealed with film, all the microplates were placed in a 37° C. water bath to preheat for 5 minutes, and 6 mM NADPH solution was placed in a 37° C. water bath to preheat for 5 minutes. Then 15 μL of NADPH solution was added to each cell successively in reverse time order, that is, first adding the T45 plate, 15 minutes later the T30 plate, 15 minutes later again the T15 plate, and 10 minutes later gain the T5 plate. […]
as §3

Structure (SMILES)	CLint scaled at 1 µM ([1]; Beagle, dog liver microsomes) [mL/min/kg]	half-life at 1 µM ([1]; Beagle, dog liver microsomes) [h]	CLint scaled at 1 µM ([1]; human liver microsomes) [mL/min/kg]	half-life at 1 µM ([1]; human liver microsomes) [h]	CLint scaled at 1 µM ([1]; mouse liver microsomes) [mL/min/kg]	half-life at 1 µM ([1]; mouse liver microsomes) [h]	CLint scaled at 1 µM ([1]; rat liver microsomes) [mL/min/kg]	half-life at 1 µM ([1]; rat liver microsomes) [h]	CLint scaled at 1 µM [2] [mL/min/kg]	half-life at 1 µM [2] [h]
Cc1ccc(C(=O)Nc2ccc(Oc3cc4cnn(C)c4cc3-c3cn[nH]c3)c(F)c2)c(=O)n1-c1ccc(F)cc1 [Merestinib, reference compound]	38.4	1.5	22	1.32	90.3	0.459	105	0.867	81	0.417
COc1ccc(C(=O)Nc2ccc(Oc3cc4cnn(C)c4cc3-c3cn[nH]c3)c(F)c2)c(=O)n1-c1ccc(F)cc1 [Example 12, N-(3-fluoro-4-(1-methyl-6-(1H-pyrazol-4-yl)-1H-indazol-5-yloxy)phenyl)-1-(4-fluorophenyl)-6-methoxy-2-oxo-1,2-dihydropyridine-3-carboxamide]	46.5	1.24	6.03	4.81	63.3	0.653	74.4	1.22	36.2	0.933
